This note sets out measurements from ChEMBL document CHEMBL1201862, “PubChem BioAssay data set” (2004).

Some test systems named below: SW-620; NCI-H23; NCI/ADR-RES; HCC 2998; LOX IMVI; K562; OVCAR-4; RXF 393; NCI-H522; MDA-N; OVCAR-3; OVCAR-8; KM12; 786-0; COLO 205; RPMI-8226; T47D; UACC-62; UO-31; SK-MEL-2.
Holding throughout (test): DTP human tumour cell line panel, 48 h

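96-well plates; 48 h exposure; 5 concentrations. Endpoints by linear interpolation between flanking doses. Not reached: highest tested concentration assigned. GI50 is the concentration that inhibits growth by half.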 Activity calls are given as the source filed them. Rule as the data show it: active = GI50 up to about 1.1 µM and inactive = higher.

Turning to `CC(CC(C#N)(c1ccccc1)c1ccccc1)N1CCCCC1` (stereo not given), the GI50 was 19.2 µM (inactive) with SW-620; 37.8 µM (inactive) with NCI-H23; 28.1 µM (inactive) with NCI/ADR-RES; 15.4 µM (inactive) in the experiment on HCC 2998; 17.3 µM (inactive) in the experiment on LOX IMVI; 19.3 µM (inactive) in the experiment with K562. For the same compound, the GI50 in the experiment on OVCAR-4 was 39.6 µM (inactive); in the experiment on RXF 393 it was 28.7 µM (inactive); in the experiment with NCI-H522, 18.6 µM (inactive); in the experiment with MDA-N, 19.1 µM (inactive); in the experiment with OVCAR-3 it was 17.6 µM (inactive); in the experiment on OVCAR-8, 42.1 µM (inactive). Moreover, the GI50 in the experiment with KM12 is 18.1 µM (inactive); with 786-0, 27.3 µM (inactive); with COLO 205, 16.2 µM (inactive); in the experiment with RPMI-8226 it was 19.2 µM (inactive); in the experiment on T47D it was 49.7 µM (inactive); with UACC-62, 21.3 µM (inactive). The GI50 is 26.2 µM (inactive) in the experiment with UO-31 and 21.2 µM (inactive) in the experiment on SK-MEL-2.
In the case of `COc1ccc2nccc(/C=C/c3ccc(N(C)C)cc3)c2c1`, the GI50 in the experiment on SW-620 is > 10 µM (inactive); in the experiment with NCI-H23, > 10 µM (inactive); with NCI/ADR-RES, > 10 µM (inactive); with HCC 2998 it was > 10 µM (inactive); with LOX IMVI, > 10 µM (inactive); in the experiment on K562, 6.41 µM (inactive). Further, the GI50 with OVCAR-4 was > 10 µM (inactive); in the experiment with RXF 393, > 10 µM (inactive); in the experiment on NCI-H522, > 10 µM (inactive); with MDA-N, 3.02 µM (inactive); with OVCAR-3, > 10 µM (inactive); in the experiment on OVCAR-8 it was > 10 µM (inactive). Moreover, the GI50 in the experiment on KM12, with 786-0, in the experiment with COLO 205, with RPMI-8226, in the experiment with T47D and in the experiment on UACC-62 was > 10 µM (inactive) in each case. The GI50 in the experiment on UO-31 and in the experiment with SK-MEL-2 was > 10 µM (inactive) throughout.
For the compound `CN(/N=C\c1ccc2ccccc2c1)C1=NCCCCN1`, the GI50 with SW-620 was 17.9 µM (inactive); in the experiment with NCI-H23, 29.8 µM (inactive); in the experiment on NCI/ADR-RES, 26.7 µM (inactive); in the experiment on HCC 2998, 14.5 µM (inactive); in the experiment with LOX IMVI it was 13.6 µM (inactive); in the experiment on K562 it was 17.4 µM (inactive). For the same compound, the GI50 with OVCAR-4 is 30.2 µM (inactive); with RXF 393, 12.5 µM (inactive); in the experiment on NCI-H522, 16.7 µM (inactive); in the experiment with MDA-N it was 16.3 µM (inactive); in the experiment with OVCAR-3, 36.5 µM (inactive); with OVCAR-8 it was 29.8 µM (inactive). The GI50 in the experiment on KM12 is 20.9 µM (inactive); in the experiment with 786-0 it was 15.8 µM (inactive); with COLO 205, 16.1 µM (inactive); in the experiment on RPMI-8226 it was 19.8 µM (inactive); in the experiment on T47D, 31.6 µM (inactive); in the experiment with UACC-62, 27.2 µM (inactive). Besides, the GI50 in the experiment with UO-31 is 13.8 µM (inactive); in the experiment on SK-MEL-2, 23.8 µM (inactive).
Take `O=C1/C(=C\c2ccc(Cl)cc2Cl)Sc2scc(-c3cccc([N+](=O)[O-])c3)[n+]21`: the GI50 was 3.62 µM (inactive) in the experiment with SW-620; 12.6 µM (inactive) in the experiment on NCI-H23; 8.75 µM (inactive) in the experiment on NCI/ADR-RES; 7.64 µM (inactive) in the experiment on HCC 2998; 1.55 µM (inactive) in the experiment with LOX IMVI; 3.1 µM (inactive) with K562. Further, the GI50 in the experiment with OVCAR-4 was 12 µM (inactive); with RXF 393 it was 6.25 µM (inactive); in the experiment on NCI-H522, 1.43 µM (inactive); with MDA-N, 4.28 µM (inactive); in the experiment with OVCAR-3 it was 8.13 µM (inactive); in the experiment on OVCAR-8, 8.15 µM (inactive). The GI50 in the experiment with KM12 was 11.6 µM (inactive); in the experiment on 786-0, 3.39 µM (inactive); in the experiment with COLO 205 it was 0.59 µM (active); with RPMI-8226, 4.48 µM (inactive); in the experiment on T47D, 12.2 µM (inactive); with UACC-62, 8.65 µM (inactive). Besides, the results for the GI50 with UO-31 and in the experiment with SK-MEL-2 were 3.47 µM (inactive) and 14.2 µM (inactive), respectively.
Turning to `O=C(O)c1ccccc1C(=O)c1ccc2c(c1)Cc1ccccc1-2`, the GI50 in the experiment with SW-620 is > 100 µM (inactive); in the experiment with NCI-H23, > 100 µM (inactive); in the experiment on NCI/ADR-RES, 99.1 µM (inactive); in the experiment with HCC 2998, 28.1 µM (inactive); in the experiment on LOX IMVI, 85.7 µM (inactive); with K562 it was 57.9 µM (inactive). In addition, the GI50 with OVCAR-4 is > 100 µM (inactive); in the experiment on RXF 393 it was > 100 µM (inactive); in the experiment on NCI-H522, 41.9 µM (inactive); in the experiment on MDA-N, 48.8 µM (inactive); in the experiment on OVCAR-3 it was > 100 µM (inactive); with OVCAR-8, 83.2 µM (inactive). In addition, the GI50 with KM12 was 64.1 µM (inactive); in the experiment on 786-0, > 100 µM (inactive); with COLO 205 it was 57 µM (inactive); with RPMI-8226 it was 60.8 µM (inactive); in the experiment with T47D, 80.4 µM (inactive); in the experiment with UACC-62, 66.8 µM (inactive). Besides, the GI50 with UO-31 and in the experiment with SK-MEL-2 was > 100 µM (inactive) in each case.
`CC1(CCCO)CCCCCCCCCC(C)(CCCO)C1=O` (stereo not given): the GI50 with SW-620, with NCI-H23, in the experiment on NCI/ADR-RES, in the experiment on HCC 2998, in the experiment on LOX IMVI and with K562 was > 100 µM (inactive) throughout. For the same compound, the GI50 with OVCAR-4, in the experiment with RXF 393, in the experiment on NCI-H522, in the experiment with MDA-N, in the experiment with OVCAR-3 and in the experiment on OVCAR-8 was > 100 µM (inactive) throughout. For the same compound, the GI50 in the experiment with KM12, in the experiment with 786-0, in the experiment with COLO 205, with RPMI-8226, in the experiment on T47D and in the experiment on UACC-62 was > 100 µM (inactive) each time. Further, the values for the GI50 with UO-31 and in the experiment on SK-MEL-2 were > 100 µM (inactive) and 97.5 µM (inactive), respectively.
Consider `O=c1oc2ccc(Cl)cc2cc1-c1cn2ccccc2n1`, for which the GI50 in the experiment on SW-620 is 85.5 µM (inactive); in the experiment with NCI-H23 it was 15.7 µM (inactive); with NCI/ADR-RES, 17.9 µM (inactive); in the experiment on HCC 2998, > 100 µM (inactive); in the experiment on LOX IMVI it was 15 µM (inactive); in the experiment on K562, > 100 µM (inactive). The GI50 was 13.7 µM (inactive) in the experiment on OVCAR-4; 13.7 µM (inactive) with RXF 393; 36.6 µM (inactive) in the experiment with NCI-H522; > 100 µM (inactive) with MDA-N; 33.7 µM (inactive) in the experiment with OVCAR-3; 9.62 µM (inactive) in the experiment with OVCAR-8. The GI50 in the experiment on KM12 is > 100 µM (inactive); in the experiment on 786-0, 3.24 µM (inactive); in the experiment with COLO 205 it was > 100 µM (inactive); in the experiment on RPMI-8226, 80.9 µM (inactive); in the experiment with T47D, > 61.2 µM (inactive); with UACC-62, 13 µM (inactive). In addition, the GI50 in the experiment with UO-31 was 4.72 µM (inactive); with SK-MEL-2, > 96.6 µM (inactive).
Regarding `CC(=O)O[C@H]1C(=O)[C@@]2(C)[C@H]([C@H](OC(=O)c3ccccc3)[C@]3(O)C[C@H](OC(=O)[C@H](O)[C@@H](NC(=O)c4ccccc4)c4ccccc4C)C(C)=C1C3(C)C)[C@]1(OC(C)=O)CO[C@@H]1C[C@@H]2O`, the GI50 in the experiment on SW-620 was 0.351 µM (active); in the experiment with NCI-H23, 0.948 µM (active); in the experiment on NCI/ADR-RES, > 25 µM (inactive); with HCC 2998, 0.782 µM (active); in the experiment with LOX IMVI, 0.631 µM (active); in the experiment with K562, 0.211 µM (active). Moreover, the GI50 with OVCAR-4 was 3.78 µM (inactive); with RXF 393, 0.525 µM (active); in the experiment with NCI-H522 it was 0.556 µM (active); in the experiment on MDA-N, 0.0632 µM (active); with OVCAR-3, 0.324 µM (active); in the experiment on OVCAR-8, 1.41 µM (inactive). In addition, the GI50 in the experiment on KM12 was 0.163 µM (active); in the experiment with 786-0, 1.64 µM (inactive); with COLO 205, 0.136 µM (active); with RPMI-8226, 0.0904 µM (active); with T47D, > 25 µM (inactive); in the experiment on UACC-62, 1.22 µM (inactive). The GI50 in the experiment with UO-31 was 6.46 µM (inactive); in the experiment with SK-MEL-2 it was 2.34 µM (inactive).
As for `O=C1C=C2S[C@H]3C[C@]2(C=C1Br)C1=C(N3)C(=O)c2[nH]cc3c2C1=NCC3` [(+)-DISCORHABDIN B], the GI50 in the experiment with SW-620 is 0.0857 µM (active); with NCI-H23 it was 1.22 µM (inactive); in the experiment with NCI/ADR-RES it was 0.205 µM (active); in the experiment with HCC 2998, 2.3 µM (inactive); in the experiment on LOX IMVI, 0.347 µM (active); in the experiment on K562, 0.209 µM (active). Moreover, the 50% growth inhibitory concentration (GI50) is 0.218 µM (active) with OVCAR-4; 0.272 µM (active) in the experiment on RXF 393; 0.273 µM (active) in the experiment on NCI-H522; 0.165 µM (active) in the experiment with MDA-N; 0.347 µM (active) in the experiment on OVCAR-3; 0.541 µM (active) in the experiment on OVCAR-8. The GI50 in the experiment on KM12 is 1.6 µM (inactive); with 786-0, 0.883 µM (active); in the experiment on COLO 205, 0.0721 µM (active); with RPMI-8226 it was 0.305 µM (active); with T47D it was 0.283 µM (active); with UACC-62, 0.555 µM (active). The GI50 is 1.57 µM (inactive) in the experiment on UO-31 and 0.469 µM (active) in the experiment with SK-MEL-2.
